Results from patent publication US10781224B2, “Bis(oxymethyl)phosphinic acid and biogenic metal salts thereof as regulators of plant growth and development” (priority 2016, dated 2020).

Tested on: corn (Krasnodar 385 MV variety)
Test: Corn seed treatment with BHMPA salts: germinating power
Type: in vivo
Procedure, shortened: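 Seeds (50 per Petri dish on two layers of filter paper) soaked 1 h in BHMPA or its Ca, Mg, Na, Co, Mn, Cu or Zn salts at 1·10^−6-1·10^−12%, with water controls. Germination energy read on day 4, germination on day 8 (wheat) or day 7 (rice, corn), as % means of four replicates. Germinating power taken as root and sprout length plus wet and dry mass per 100 seedlings.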

[1] = corn seeds, solution concentration 1 · 10^−6%, copper salt of BHMPA
[2] = corn seeds, solution concentration 1 · 10^−7%, copper salt of BHMPA
[3] = corn seeds, solution concentration 1 · 10^−8%, copper salt of BHMPA
[4] = corn seeds, solution concentration 1 · 10^−9%, copper salt of BHMPA
[5] = corn seeds, solution concentration 1 · 10^−10%, copper salt of BHMPA
[6] = corn seeds, solution concentration 1 · 10^−11%, copper salt of BHMPA
[7] = corn seeds, solution concentration 1 · 10^−12%, copper salt of BHMPA

Copper BHMPA Salt [Cu-salt]
optimum concentration for treating corn seeds before sowing (corn): 1·10^−8% | Length, root [1]: 5.2 cm | Length, root, + % to control [1]: 8% | Length, sprout [1]: 4.2 cm | Length, sprout, + % to control [1]: 20% | Mass, dry, root [1]: 1.27 g/100 plantlings | Mass, dry, root, + % to control [1]: 7% | Mass, dry, sprout [1]: 1.01 g/100 plantlings | Mass, dry, sprout, + % to control [1]: 2% | Mass, wet, root [1]: 8.99 g/100 plantlings | Mass, wet, root, + % to control [1]: 11% | Mass, wet, sprout [1]: 7.21 g/100 plantlings | Mass, wet, sprout, + % to control [1]: 15% | Length, root [2]: 5.4 cm | Length, root, + % to control [2]: 12.5% | Length, sprout [2]: 4.6 cm | Length, sprout, + % to control [2]: 31% | Mass, dry, root [2]: 1.38 g/100 plantlings | Mass, dry, root, + % to control [2]: 16% | Mass, dry, sprout [2]: 1.09 g/100 plantlings | Mass, dry, sprout, + % to control [2]: 10% | Mass, wet, root [2]: 9.81 g/100 plantlings | Mass, wet, root, + % to control [2]: 21% | Mass, wet, sprout [2]: 7.94 g/100 plantlings | Mass, wet, sprout, + % to control [2]: 27% | Length, root [3]: 5.6 cm | Length, sprout [3]: 4.8 cm | Length, sprout, + % to control [3]: 37% | Mass, dry, root [3]: 1.53 g/100 plantlings | Mass, dry, root, + % to control [3]: 28.5% | Mass, dry, sprout [3]: 1.17 g/100 plantlings | Mass, dry, sprout, + % to control [3]: 18% | Mass, wet, root [3]: 10.67 g/100 plantlings | Mass, wet, root, + % to control [3]: 31% | Mass, wet, sprout [3]: 8.82 g/100 plantlings | Mass, wet, sprout, + % to control [3]: 41% | Length, root [4]: 5.3 cm | Length, root, + % to control [4]: 10% | Length, sprout [4]: 4.7 cm | Length, sprout, + % to control [4]: 34% | Mass, dry, root [4]: 1.50 g/100 plantlings | Mass, dry, root, + % to control [4]: 26% | Mass, dry, sprout [4]: 1.13 g/100 plantlings | Mass, dry, sprout, + % to control [4]: 14% | Mass, wet, root [4]: 9.58 g/100 plantlings | Mass, wet, root, + % to control [4]: 18% | Mass, wet, sprout [4]: 8.75 g/100 plantlings | Mass, wet, sprout, + % to control [4]: 40% | Length, root [5]: 5.1 cm | Length, root, + % to control [5]: 6% | Length, sprout [5]: 4.4 cm | Length, sprout, + % to control [5]: 26% | Mass, dry, root [5]: 1.35 g/100 plantlings | Mass, dry, root, + % to control [5]: 13% | Mass, dry, sprout [5]: 1.07 g/100 plantlings | Mass, dry, sprout, + % to control [5]: 8% | Mass, wet, root [5]: 9.13 g/100 plantlings | Mass, wet, root, + % to control [5]: 12% | Mass, wet, sprout [5]: 7.88 g/100 plantlings | Mass, wet, sprout, + % to control [5]: 26% | Length, root [6]: 5.0 cm | Length, root, + % to control [6]: 4% | Length, sprout [6]: 3.9 cm | Length, sprout, + % to control [6]: 11% | Mass, dry, root [6]: 1.25 g/100 plantlings | Mass, dry, root, + % to control [6]: 5% | Mass, dry, sprout [6]: 0.97 g/100 plantlings | Mass, dry, sprout, + % to control [6]: −2% | Mass, wet, root [6]: 8.61 g/100 plantlings | Mass, wet, root, + % to control [6]: 6% | Mass, wet, sprout [6]: 6.79 g/100 plantlings | Mass, wet, sprout, + % to control [6]: 9% | Length, root [7]: 4.8 cm | Length, root, + % to control [7]: 0% | Length, sprout [7]: 3.7 cm | Length, sprout, + % to control [7]: 6% | Mass, dry, root [7]: 1.21 g/100 plantlings | Mass, dry, root, + % to control [7]: 2% | Mass, dry, sprout [7]: 0.92 g/100 plantlings | Mass, dry, sprout, + % to control [7]: −7% | Mass, wet, root [7]: 8.37 g/100 plantlings | Mass, wet, root, + % to control [7]: 3% | Mass, wet, sprout [7]: 6.35 g/100 plantlings | Mass, wet, sprout, + % to control [7]: 2% | Length, root, + % to control (corn, 1·10^−8% solution): 16% | Length, sprout, + % to control (corn, 1·10^−8% solution): 37% | Mass, dry, root, + % to control (corn, 1·10^−8% solution): 28.5% | Mass, dry, sprout, + % to control (corn, 1·10^−8% solution): 18% | Mass, wet, root, + % to control (corn, 1·10^−8% solution): 31% | Mass, wet, sprout, + % to control (corn, 1·10^−8% solution): 41%
